Laboratory results reported in patent publication US9926281B2 (priority 2014, dated 2018).
Like-named read-outs stand apart in the source and are kept apart here.

Experiments:
human ADAMTS-5 [1] = target: T1, human ADAMTS-5 (Homo sapiens (Human), UniProt Q9UNA0); settings: read-out: hADAMTS-5 potency IC50
human MMP13 = human MMP13 (Homo sapiens (Human), UniProt P45452); settings: read-out: hMMP-13 potency IC50
Protocol: Human MMP13 is preactivated by incubated the enzyme in the same buffer complemented with 1 mM freshly prepared p-Aminophenylmercuric acetate (AMPA) for 1 hour at 37° C.

rnADAMTS-5 (1-564-6H) = rnADAMTS-5 (1-564-6H) (Rattus norvegicus, UniProt Q6TY19); settings: read-out: Rat ADAMTS-5 potency IC50
human ADAMTS-5 [2] = target: T1, human ADAMTS-5; settings: read-out: hADAMTS-5 potency IC50; remark: listed apart in the source
Protocol: Finally, the fluorescence is read on the Envision (Perkin Elmer) after an incubation of 90 min at 37° C.

human TACE = human TACE (Homo sapiens (Human), UniProt P78536); settings: read-out: TACE potency IC50
Chain of human TACE (P78536 whole entry, looked up, change not shown): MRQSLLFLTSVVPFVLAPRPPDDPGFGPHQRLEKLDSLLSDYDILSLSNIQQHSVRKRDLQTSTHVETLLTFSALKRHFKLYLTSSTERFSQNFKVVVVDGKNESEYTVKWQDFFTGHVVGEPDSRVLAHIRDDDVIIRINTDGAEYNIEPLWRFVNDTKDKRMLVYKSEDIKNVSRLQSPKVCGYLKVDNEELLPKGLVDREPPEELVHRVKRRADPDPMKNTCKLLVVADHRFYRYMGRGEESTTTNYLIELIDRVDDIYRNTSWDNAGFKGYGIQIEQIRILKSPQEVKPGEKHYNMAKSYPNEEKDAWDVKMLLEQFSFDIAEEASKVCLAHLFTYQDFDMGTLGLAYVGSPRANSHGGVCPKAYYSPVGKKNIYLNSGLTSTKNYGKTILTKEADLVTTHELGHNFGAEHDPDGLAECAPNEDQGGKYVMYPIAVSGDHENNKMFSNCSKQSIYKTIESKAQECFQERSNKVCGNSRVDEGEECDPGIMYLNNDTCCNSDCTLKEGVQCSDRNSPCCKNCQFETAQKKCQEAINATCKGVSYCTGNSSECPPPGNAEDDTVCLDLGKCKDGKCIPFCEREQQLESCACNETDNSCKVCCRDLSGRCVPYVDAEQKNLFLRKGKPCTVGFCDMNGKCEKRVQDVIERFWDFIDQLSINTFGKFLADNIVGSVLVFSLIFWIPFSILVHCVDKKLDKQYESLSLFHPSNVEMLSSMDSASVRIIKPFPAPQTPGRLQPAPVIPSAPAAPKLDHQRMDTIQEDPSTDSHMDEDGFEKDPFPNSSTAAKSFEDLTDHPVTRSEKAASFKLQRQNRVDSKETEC

T1 sequence (Q9UNA0 262-930): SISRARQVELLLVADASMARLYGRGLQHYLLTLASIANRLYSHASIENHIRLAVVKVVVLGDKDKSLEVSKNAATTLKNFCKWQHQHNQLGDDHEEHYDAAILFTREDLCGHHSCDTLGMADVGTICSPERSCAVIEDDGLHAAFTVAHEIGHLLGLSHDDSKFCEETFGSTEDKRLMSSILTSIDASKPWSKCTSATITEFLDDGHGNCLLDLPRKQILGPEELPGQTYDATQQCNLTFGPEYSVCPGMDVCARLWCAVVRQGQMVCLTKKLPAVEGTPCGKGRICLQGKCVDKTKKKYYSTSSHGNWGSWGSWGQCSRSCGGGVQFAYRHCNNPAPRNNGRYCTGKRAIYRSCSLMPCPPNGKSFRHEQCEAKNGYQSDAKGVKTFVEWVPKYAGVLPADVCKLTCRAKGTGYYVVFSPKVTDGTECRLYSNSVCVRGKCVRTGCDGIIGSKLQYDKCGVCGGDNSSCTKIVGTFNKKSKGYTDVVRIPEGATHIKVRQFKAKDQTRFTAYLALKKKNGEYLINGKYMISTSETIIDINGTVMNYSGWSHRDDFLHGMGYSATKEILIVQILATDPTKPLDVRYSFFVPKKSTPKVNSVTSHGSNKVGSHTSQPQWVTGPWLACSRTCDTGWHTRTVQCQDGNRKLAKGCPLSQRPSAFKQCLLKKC

In the case of `Cc1ccc(N2CCN(C(=O)CCC3(c4ccccc4)NC(=O)NC3=O)CC2)c(C)c1` (centres unmarked) [compound 31, 5-[3-[4-(2,4-dimethylphenyl)piperazin-1-yl]-3-oxo-propyl]-5-phenyl-imidazolidine-2,4-dione], the IC50 (human ADAMTS-5 [1]) is reported as 1060 nM.
Work on `Cc1ccc(N2CCN(C(=O)CCC3(C)NC(=O)NC3=O)CC2)c(C)c1` (centres unmarked) [compound 38, 5-[3-[4-(2,4-dimethylphenyl)piperazin-1-yl]-3-oxo-propyl]-5-methyl-imidazolidine-2,4-dione] yielded an IC50 (human ADAMTS-5 [1]) greater than 4000 nM.
Compound `CC1(CCC(=O)N2CCN(c3cccc(Cl)c3Cl)CC2)NC(=O)NC1=O` (centres unmarked) [compound 41, 5-[3-[4-(2,3-dichlorophenyl)piperazin-1-yl]-3-oxo-propyl]-5-methyl-imidazolidine-2,4-dione] has an IC50 (human ADAMTS-5 [1]) of 2660 nM.
`CC1(CCC(=O)N2CCN(c3ccccn3)CC2)NC(=O)NC1=O` (centres unmarked) [compound 42, 5-methyl-5-[3-oxo-3-[4-(2-pyridyl)piperazin-1-yl]propyl]imidazolidine-2,4-dione] showed an IC50 (human ADAMTS-5 [1]) greater than 3980 nM.
`CC1(CCC(=O)N2CCN(c3cccc(Br)c3)CC2)NC(=O)NC1=O` (centres unmarked) [compound 48, 5-[3-[4-(3-bromophenyl)piperazin-1-yl]-3-oxo-propyl]-5-methyl-imidazolidine-2,4-dione] was tested, and the IC50 (human ADAMTS-5 [1]) was 391 nM.
With `CN(C)CCC1(CCC(=O)N2CCN(c3cc(Cl)cc(Cl)c3)CC2)NC(=O)NC1=O` (centres unmarked) [compound 58, 5-[3-[4-(3,5-dichlorophenyl)piperazin-1-yl]-3-oxo-propyl]-5-(2-dimethylaminoethyl)imidazolidine-2,4-dione] the IC50 (human ADAMTS-5 [1]) was greater than 20000 nM.
In the case of `CC1(CCC(=O)N2CCN(c3nccs3)CC2)NC(=O)NC1=O` (centres unmarked) [compound 59, 5-methyl-5-[3-oxo-3-(4-thiazol-2-ylpiperazin-1-yl)propyl]imidazolidine-2,4-dione], the IC50 (human ADAMTS-5 [1]) is reported as greater than 20000 nM.
For `Cc1cc(F)ccc1N1CCN(C(=O)CCC2(C)NC(=O)NC2=O)CC1` (centres unmarked) [compound 61, 5-[3-[4-(4-fluoro-2-methyl-phenyl)piperazin-1-yl]-3-oxo-propyl]-5-methyl-imidazolidine-2,4-dione], the IC50 (human ADAMTS-5 [1]) was 2940 nM.
Compound `Cc1ccccc1N1CCN(C(=O)CCC2(CN(C)C)NC(=O)NC2=O)CC1` (centres unmarked) [compound 119, 5-(dimethylaminomethyl)-5-[3-[4-(o-tolyl)piperazin-1-yl]-3-oxo-propyl]imidazolidine-2,4-dione] has an IC50 (human ADAMTS-5 [1]) of 1740 nM.
`C[C@@H]1CN(C(=O)CCC2(c3ccccc3)NC(=O)NC2=O)CCN1c1ccccc1` (stereo partly drawn) [compound 131, 5-[3-[(3R)-3-methyl-4-phenyl-piperazin-1-yl]-3-oxo-propyl]-5-phenyl-imidazolidine-2,4-dione] was tested, and the IC50 (human ADAMTS-5 [1]) was 1260 nM.
In the case of `Cc1c(Cl)cc(Cl)cc1N1CCN(C(=O)CCC2(C3CC3)NC(=O)NC2=O)C[C@@H]1C` (stereo partly drawn) [compound 177, 5-cyclopropyl-5-[3-[(3S)-4-(3,5-dichloro-2-methyl-phenyl)-3-methyl-piperazin-1-yl]-3-oxo-propyl]imidazolidine-2,4-dione], the IC50 (human MMP13) is reported as greater than 20000 nM, the IC50 (rnADAMTS-5 (1-564-6H)) is reported as 40 nM and the IC50 (human ADAMTS-5 [2]) is reported as 78 nM. It also gave an IC50 (human TACE) of 1990 nM.
For `NCC1(CCC(=O)N2CCN(c3cc(Cl)cc(Cl)c3)CC2)NC(=O)NC1=O` (centres unmarked) [compound 180, 5-(aminomethyl)-5-[3-[4-(3,5-dichlorophenyl)piperazin-1-yl]-3-oxo-propyl]imidazolidine-2,4-dione], the IC50 (human MMP13) was greater than 20000 nM, the IC50 (rnADAMTS-5 (1-564-6H)) was 241 nM and the IC50 (human ADAMTS-5 [2]) was 177 nM. The IC50 (human TACE) was greater than 4000 nM.
In the case of `COCCNC(=O)CC1(CCC(=O)N2CCN(c3cc(Cl)cc(Cl)c3)CC2)NC(=O)NC1=O` (centres unmarked) [compound 187, 2-[4-[3-[4-(3,5-dichlorophenyl)piperazin-1-yl]-3-oxo-propyl]-2,5-dioxo-imidazolidin-4-yl]-N-(2-methoxyethyl)acetamide], the IC50 (human MMP13) is reported as 2610 nM, the IC50 (rnADAMTS-5 (1-564-6H)) is reported as 396 nM and the IC50 (human ADAMTS-5 [2]) is reported as 456 nM. The IC50 (human TACE) was greater than 20000 nM.
With `CC(CC1(C2CC2)NC(=O)NC1=O)C(=O)N1CCN(c2cccc(F)c2)[C@@H](C)C1` (stereo partly drawn) [compound 190, 5-cyclopropyl-5-[3-[(3S)-4-(3-fluorophenyl)-3-methyl-piperazin-1-yl]-2-methyl-3-oxo-propyl]imidazolidine-2,4-dione] the IC50 (human MMP13) was 3060 nM, the IC50 (rnADAMTS-5 (1-564-6H)) was 15 nM and the IC50 (human ADAMTS-5 [2]) was 22 nM. It also gave an IC50 (human TACE) greater than 20000 nM.
Compound `CC(CC1(C2CC2)NC(=O)NC1=O)C(=O)N1CCN(c2ccc(F)c(F)c2)[C@@H](C)C1` (stereo partly drawn) [compound 191, 5-cyclopropyl-5-[3-[(3S)-4-(3,4-difluorophenyl)-3-methyl-piperazin-1-yl]-2-methyl-3-oxo-propyl]imidazolidine-2,4-dione] has an IC50 (human MMP13) of 1880 nM, an IC50 (rnADAMTS-5 (1-564-6H)) of 11 nM and an IC50 (human ADAMTS-5 [2]) of 20 nM. The IC50 (human TACE) was greater than 20000 nM.
Compound `CC(CC1(C2CC2)NC(=O)NC1=O)C(=O)N1CCN(c2ccc(F)c(Cl)c2)[C@@H](C)C1` (stereo partly drawn) [compound 192, 5-[3-[(3S)-4-(3-chloro-4-fluoro-phenyl)-3-methyl-piperazin-1-yl]-2-methyl-3-oxo-propyl]-5-cyclopropyl-imidazolidine-2,4-dione] has an IC50 (human MMP13) of 865 nM, an IC50 (rnADAMTS-5 (1-564-6H)) of 6 nM and an IC50 (human ADAMTS-5 [2]) of 11 nM. It also gave an IC50 (human TACE) greater than 4000 nM.
Compound `CC(CC1(C2CC2)NC(=O)NC1=O)C(=O)N1CCN(c2ccc(Cl)cc2)[C@@H](C)C1` (stereo partly drawn) [compound 193, 5-[3-[(3S)-4-(4-chlorophenyl)-3-methyl-piperazin-1-yl]-2-methyl-3-oxo-propyl]-5-cyclopropyl-imidazolidine-2,4-dione] has an IC50 (human MMP13) of 433 nM, an IC50 (rnADAMTS-5 (1-564-6H)) of 7 nM and an IC50 (human ADAMTS-5 [2]) of 23 nM. It also gave an IC50 (human TACE) greater than 20000 nM.
Work on `CC(CC1(C2CC2)NC(=O)NC1=O)C(=O)N1CCN(c2cc(F)cc(Cl)c2)[C@@H](C)C1` (stereo partly drawn) [compound 194, 5-[3-[(3S)-4-(3-chloro-5-fluoro-phenyl)-3-methyl-piperazin-1-yl]-2-methyl-3-oxo-propyl]-5-cyclopropyl-imidazolidine-2,4-dione] yielded an IC50 (human MMP13) of 952 nM, an IC50 (rnADAMTS-5 (1-564-6H)) of 5 nM and an IC50 (human ADAMTS-5 [2]) of 11 nM. The IC50 (human TACE) was greater than 4000 nM.
For `CC(CC1(C2CNC2)NC(=O)NC1=O)C(=O)N1CCN(c2cc(Cl)cc(Cl)c2)CC1` (centres unmarked) [compound 196], the IC50 (human MMP13) was greater than 20000 nM, the IC50 (rnADAMTS-5 (1-564-6H)) was 104 nM and the IC50 (human ADAMTS-5 [2]) was 102 nM. The IC50 (human TACE) was greater than 3930 nM.
In the case of `CSCCC1(CC(C)C(=O)N2CCN(c3cc(Cl)cc(Cl)c3)CC2)NC(=O)NC1=O` (centres unmarked) [compound 197, 5-[3-[4-(3,5-dichlorophenyl)piperazin-1-yl]-2-methyl-3-oxo-propyl]-5-(2-methylsulfanylethyl)imidazolidine-2,4-dione], the IC50 (human MMP13) is reported as greater than 4000 nM, the IC50 (rnADAMTS-5 (1-564-6H)) is reported as 21 nM and the IC50 (human ADAMTS-5 [2]) is reported as 26 nM. The IC50 (human TACE) was 134 nM.
`CC(CC1(CC2CCN(C(=O)OC(C)(C)C)CC2)NC(=O)NC1=O)C(=O)N1CCN(c2cc(Cl)cc(Cl)c2)CC1` (centres unmarked) [compound 198, tert-butyl 4-[[4-[3-[4-(3,5-dichlorophenyl)piperazin-1-yl]-2-methyl-3-oxo-propyl]-2,5-dioxo-imidazolidin-4-yl]methyl]piperidine-1-carboxylate] was tested, and the IC50 (human MMP13) was 1940 nM, the IC50 (rnADAMTS-5 (1-564-6H)) was 38 nM and the IC50 (human ADAMTS-5 [2]) was 52 nM. It also gave an IC50 (human TACE) of 817 nM.
`CC(CC1(C2CCOCC2)NC(=O)NC1=O)C(=O)N1CCN(c2cc(Cl)cc(Cl)c2)CC1` (centres unmarked) [compound 199, 5-[3-[4-(3,5-dichlorophenyl)piperazin-1-yl]-2-methyl-3-oxo-propyl]-5-tetrahydropyran-4-yl-imidazolidine-2,4-dione] gave an IC50 (human MMP13) greater than 20000 nM, an IC50 (rnADAMTS-5 (1-564-6H)) of 48 nM and an IC50 (human ADAMTS-5 [2]) of 62 nM. The IC50 (human TACE) was 1050 nM.
`COC(CC1(C2CC2)NC(=O)NC1=O)C(=O)N1CCN(c2cc(Cl)cc(Cl)c2)CC1` (centres unmarked) [compound 206, 5-cyclopropyl-5-[3-[4-(3,5-dichlorophenyl)piperazin-1-yl]-2-methoxy-3-oxo-propyl]imidazolidine-2,4-dione] gave an IC50 (human MMP13) greater than 4000 nM, an IC50 (rnADAMTS-5 (1-564-6H)) of 40 nM and an IC50 (human ADAMTS-5 [2]) of 60 nM. The IC50 (human TACE) was greater than 4000 nM.
Work on `C[C@H]1CN(C(=O)CC[C@@]2(C3CC3)NC(=O)NC2=O)CCN1c1ccc(Cl)c(Cl)c1` [compound 207, (5S)-5-cyclopropyl-5-[3-[(3S)-4-(3,4-dichlorophenyl)-3-methyl-piperazin-1-yl]-3-oxo-propyl]imidazolidine-2,4-dione] yielded an IC50 (human MMP13) of 2880 nM, an IC50 (rnADAMTS-5 (1-564-6H)) of 6 nM and an IC50 (human ADAMTS-5 [2]) of 12 nM. For the same compound, the IC50 (human TACE) was greater than 4000 nM.
With `CN(C)c1cccc(N2CCN(C(=O)CCC3(C4CC4)NC(=O)NC3=O)CC2)c1` (centres unmarked) [compound 209, 5-cyclopropyl-5-[3-[4-[3-(dimethylamino)phenyl]piperazin-1-yl]-3-oxo-propyl]imidazolidine-2,4-dione] the IC50 (human MMP13) was greater than 20000 nM, the IC50 (rnADAMTS-5 (1-564-6H)) was 565 nM and the IC50 (human ADAMTS-5 [2]) was 836 nM. It also gave an IC50 (human TACE) greater than 4000 nM.
In the case of `CC(CC1(C)NC(=O)NC1=O)C(=O)N1CCN(c2ccc(F)c(F)c2)CC1` (centres unmarked) [compound 211, 5-[3-[4-(3,4-difluorophenyl)piperazin-1-yl]-2-methyl-3-oxo-propyl]-5-methyl-imidazolidine-2,4-dione], the IC50 (human MMP13) is reported as 377 nM, the IC50 (rnADAMTS-5 (1-564-6H)) is reported as 23 nM and the IC50 (human ADAMTS-5 [2]) is reported as 48 nM. It also gave an IC50 (human TACE) of 3740 nM.
`CC(CC1(C)NC(=O)NC1=O)C(=O)N1CCN(c2cc(F)cc(F)c2)[C@@H](C)C1` (stereo partly drawn) [compound 213, 5-[3-[(3S)-4-(3,5-difluorophenyl)-3-methyl-piperazin-1-yl]-2-methyl-3-oxo-propyl]-5-methyl-imidazolidine-2,4-dione] showed an IC50 (human MMP13) greater than 4000 nM, an IC50 (rnADAMTS-5 (1-564-6H)) of 21 nM and an IC50 (human ADAMTS-5 [2]) of 30 nM. The IC50 (human TACE) was greater than 20000 nM.
In the case of `Cc1ccc(F)cc1N1CCN(C(=O)C(C)CC2(C)NC(=O)NC2=O)C[C@@H]1C` (stereo partly drawn) [compound 216, 5-[3-[(3S)-4-(5-fluoro-2-methyl-phenyl)-3-methyl-piperazin-1-yl]-2-methyl-3-oxo-propyl]-5-methyl-imidazolidine-2,4-dione], the IC50 (human MMP13) is reported as greater than 20000 nM, the IC50 (rnADAMTS-5 (1-564-6H)) is reported as 250 nM and the IC50 (human ADAMTS-5 [2]) is reported as 305 nM. For the same compound, the IC50 (human TACE) was greater than 4000 nM.
With `CC(CC1(C)NC(=O)NC1=O)C(=O)N1CCN(c2ccc(F)c(Cl)c2)[C@@H](C)C1` (stereo partly drawn) [compound 405, 5-{3-[(S)-4-(3-Chloro-4-fluoro-phenyl)-3-methyl-piperazin-1-yl]-2-methyl-3-oxo-propyl}-5-methyl-imidazolidine-2,4-dione] the IC50 (human MMP13) was 2330 nM, the IC50 (rnADAMTS-5 (1-564-6H)) was 18 nM and the IC50 (human ADAMTS-5 [2]) was 22 nM. The IC50 (human TACE) was greater than 4000 nM.
